Entries after “also recorded” stand apart in the source; their conditions may differ. Where a name gives a salt, the structure may show the parent alone.
Experiments:
[1] = tested on: wildtype and Keap1 mutant Kras^G12D/+;p53^−/− lung adenocarcinoma cell lines; test: Cell proliferation assay (crystal violet), drug or amino acid deprived media; assay type: cell-based, mouse; details: for sensitivity of Keap1 wildtype cells to NEAA depletion under oxidant treatment: wildtype cells treated with oxidative stress agents; for rescue of cell growth under serine deprived conditions by supplementation: 0.5 mM NAC, 50 μM Trolox, 3 mM formate, 16 μM thymidine, FIG. 7A
Description: (§1) For cell proliferation assays conducted under different drug or media conditions as indicated, cells growing in DMEM were trypsinized, counted and plated into 12 well plate dishes (BD/Falcon) in 1 mL of RPMI media. […] For deprivation experiments, cells were washed with PBS and media was replaced with 1 mL of complete RPMI or RPMI lacking indicated amino acid and supplemented with 10% dialyzed FBS and cells were re-treated with indicated drugs. RPMI was prepared from a powder mix without amino acids (US Biological) according to manufacturer's instructions. All other amino acids besides those indicated were added to the RPMI mixture in the same concentrations present in RPMI-1640 formulation (Cellgro, Corning). Proliferation experiments were carried out for 5 days post drug treatment and collected by staining. Cells were stained with a 0.5% crystal violet (Fisher) solution in 20% methanol. Plates were then washed, dried, and crystal violet was eluted in 400 μL of 10% acetic acid.

[2] = tested on: wildtype vs Keap1 mutant Kras^G12D/+;p53^−/− lung adenocarcinoma cells; test: Cell viability assay (cell titer glo); assay type: cell-based, mouse
Description: For cell viability assays cells were plated in a white, opaque 96-well plate with clear bottom at a density of 1000 cells/well in RPMI or RPMI with modified amino acid content. After attachment, CB-839 (Selleck) or L-Asparaginase (AbCam) were added at the indicated concentrations. After 3 days, cell viability in the presence of all compounds was assessed by cell titer glo (Promega).

[3] = tested on: wildtype vs Keap1 mutant cells; test: GC/MS analysis of polar metabolites and stable isotope tracing in cells; assay type: cell-based, mouse; details: for serine and glycine synthesis from [U^13C]-D glucose: serine depleted conditions, 250 nM CB-839 or 6 mM glutamate, FIG. 7E
Description: For analysis of cells, 1×10^5 cells were seeded in 1 mL of RPMI-1640 in 12 well plates. […] Media was then replaced with fresh RPMI lacking serine or asparagine where indicated and supplement with 10% FBS. For tracing experiments media contained 11 mM [U^13C]-D-glucose, 2 mM [U^13C]-L-glutamine, 2 mM [α^15N]-L-glutamine, or 285 μM [U^13C]-L-serine (Cambridge Isotope Laboratory). Cells were treated with 250 nM CB-839 and cultured for 1-3 hours. Cells were washed 2× in ice cold saline and then collected by scraping in 250 μL of 80% (v/v) of ice cold methanol containing 1.4 μg/mL norvaline (Sigma Aldrich). Samples were vortexed for 10 min at 4° C. and then centrifuged at max speed for 5 minutes. Supernatant was transferred to fresh tubes and then dried in a speed vac. For analysis of mouse plasma, whole blood was collected at the time of sacrifice by a retro-orbital bleed with heparin coated capillary tubes (Fisher) into EDTA containing microcentrifuge tubes. Whole blood was centrifuged for 5 minutes at 1600 g. Cleared plasma was transferred to fresh tubes and 4 μL of plasma was then aliquoted and used for analysis. 80% (v/v) methanol containing 1.4 μg/mL norvaline was added to plasma and samples were then dried in a speed vac. […] After derivatization, samples were analyzed by GC-MS using an HP-5MS column (Agilent Technologies) in an Agilent Intuvo gas chromatograph coupled to an Agilent 5997B mass spectrometer. […]
The MS system operated under electron impact ionization at 70 eV and the MS source and quadrupole were held at 230° C. and 150° C. respectively the detector was used in scanning mode, and the scanned ion range was 10-650 m/z. Mass isotopomer distributions were determined by integrating the appropriate ion fragments for each metabolite (Lewis et al., 2014, Molecular cell 55, 253-263) using MATLAB (Mathworks) and an algorithm adapted from Fernandez and colleagues (Fernandez et al., 1996, Journal of mass spectrometry: JMS 31, 255-262) that corrects for natural abundance.

[4] = tested on: Keap1 mutant subcutaneous tumors; test: Subcutaneous tumor growth, Keap1 mutant tumors; assay type: in vivo, C57B6 mice
Description: (§2) 5×10^5 cells were implanted subcutaneously into C57B6 mice. Tumor volume was measured by caliper and volume was calculated (Length×Width^2×0.5). After tumor establishment phase (tumor volume ˜50 mm^3), animals were randomized and assigned to a treatment group. Animals either received an amino acid control diet, diet lacking both serine and glycine, or a diet lacking asparagine (Envigo and TestDiet), 200 mg/kg CB-839 or vehicle (Calithera) twice daily administered through oral gavage as previously described (Davidson et al., 2016, Cell Metab 23, 517-528), 60 U of L-Asparaginase (Abcam) or vehicle once daily administered through intraperitoneal injection as before (Knott et al., 2018, Nature 554, 378-381) or some treatment combination as indicated.

[5] = tested on: wildtype subcutaneous tumors; test: Subcutaneous tumor growth, wildtype tumors; assay type: in vivo, C57B6 mice
Description: as §2

[6] = tested on: wildtype vs Keap1 mutant Kras^G12D/+;p53^−/− lung adenocarcinoma cells; details: previously shown (Romero 2017; Sayin 2017); cited from earlier work
KPKJ wt and KPKJ V cells = test: Cell ROS level, DCFCA assay (FACS); assay type: cell-based, mouse; details: positive control
Description: TET+ stands for 3 days treatment of 1 μg/ml doxycycline for inducing shRNA expression. G6PD knockdown induces more ROS in Keap1 wildtype cells. Keap1 mutants show lower cell ROS. ROS level was measured by DCFCA assay. G6PD KO induces accumulation of ROS in Keap1 wildtype cells. Measured by FACS (DCFCA assay.) TET treatment 4 day before measuring. H2O2 positive control is about 200-fold increase.

[7] = tested on: KPKJ Vector (Keap1 KO) cells transduced with sgG6pd and sgPGD; test: Colony formation assay, metabolite rescue of G6PD KO / PGD KO cells; assay type: cell-based, mouse; details: FIG. 18
Excerpt: Colony formation assay of KPKJ Vector (Keap1 KO) cells transduced with sgTom, sgG6pd and sgPGD, and rescued with several metabolites.

[8] = tested on: cell lines with different genetic status of Keap1; test: Relative viability in response to succinylacetone; assay type: cell-based; details: dominant negative Keap1 alleles vs Keap1 mutant cells, FIG. 35B
Excerpt: FIG. 35A depicts a western blot validation of various Keap1 cDNA constructs including WT and multiple mutants found in LUAD. FIG. 35B depicts the relative viability of cell lines with different genetic status of Keap1 in response to different concentrations of succinylacetone, an inhibitor of Alas1.

[9] = tested on: LKR (Kras^G12D/+;p53^+/+) cell lines; test: Cell proliferation assay in media lacking serine or asparagine, LKR lines; assay type: cell-based, mouse; details: pre-treated with KI696 (11 μM printed elsewhere in the source), FIG. 5B
Description: as §1

[10] = tested on: murine Kras^G12D/+;p53^−/− pancreatic ductal adenocarcinoma cell line; test: Proliferation / viability of pancreatic cancer cell line; assay type: cell-based, mouse; details: pre-treated with 1 μM KI696; 0.036 U/mL L-asparaginase 3 days, FIG. 5C, 5D
Description: RPMI was prepared from a powder mix without amino acids (US Biological) according to manufacturer's instructions. All other amino acids besides those indicated were added to the RPMI mixture in the same concentrations present in RPMI-1640 formulation (Cellgro, Corning). Proliferation experiments were carried out for 5 days post drug treatment and collected by staining. Cells were stained with a 0.5% crystal violet (Fisher) solution in 20% methanol. Plates were then washed, dried, and crystal violet was eluted in 400 μL of 10% acetic acid.

[11] = Davies et al., 2016; cited from earlier work
[12] = GC/MS plasma amino acid levels in tumor-bearing mice; assay type: in vivo; details: L-asparaginase vs asparagine deficient diet, FIG. 11A
Description: For analysis of cells, 1×10^5 cells were seeded in 1 mL of RPMI-1640 in 12 well plates. […] Media was then replaced with fresh RPMI lacking serine or asparagine where indicated and supplement with 10% FBS. For tracing experiments media contained 11 mM [U^13C]-D-glucose, 2 mM [U^13C]-L-glutamine, 2 mM [α^15N]-L-glutamine, or 285 μM [U^13C]-L-serine (Cambridge Isotope Laboratory). Cells were treated with 250 nM CB-839 and cultured for 1-3 hours. Cells were washed 2× in ice cold saline and then collected by scraping in 250 μL of 80% (v/v) of ice cold methanol containing 1.4 μg/mL norvaline (Sigma Aldrich). Samples were vortexed for 10 min at 4° C. and then centrifuged at max speed for 5 minutes. Supernatant was transferred to fresh tubes and then dried in a speed vac. For analysis of mouse plasma, whole blood was collected at the time of sacrifice by a retro-orbital bleed with heparin coated capillary tubes (Fisher) into EDTA containing microcentrifuge tubes. Whole blood was centrifuged for 5 minutes at 1600 g. Cleared plasma was transferred to fresh tubes and 4 μL of plasma was then aliquoted and used for analysis. […] After derivatization, samples were analyzed by GC-MS using an HP-5MS column (Agilent Technologies) in an Agilent Intuvo gas chromatograph coupled to an Agilent 5997B mass spectrometer. […]

KP or KPK cells = test: Cell viability with exogenous heme/hemin after Alas1 knock-down/out; assay type: cell-based, mouse
Excerpt: FIG. 36A depicts the cell viability of KP or KPK cells with guide RNAs against Alas1 or control in the presence of increasing amounts of Heme/Hemin.
FIG. 37A depicts a western blot validation of control or Alas1 targeting shRNAs in KP/KPK cells. FIG. 37B depicts the relative viability of KP/KPK cells in response to doxycycline inducible shRNA knockdown of Alas1.

KPK cells = test: Western blot of Alas1 and Hmox1 with exogenous heme/hemin; assay type: cell-based, mouse; details: increasing amounts of exogenous heme/hemin, FIG. 36B
[13] = 60 U once daily intraperitoneal, FIG. 9B

## CC(=O)OC[C@H]1O[C@@H]([S-])[C@H](OC(C)=O)[C@@H](OC(C)=O)[C@@H]1OC(C)=O.CCP(CC)CC.[Au+] [Auranofin, 3,4,5-triacetyloxy-6-(acetyloxymethyl) oxane-2-thiolate; triethylphosphanium]
[1]
  sensitivity of Keap1 wildtype cells to NEAA depletion under oxidant treatment: sensitized to NEAA depletion

## COC(=O)/C=C/C(=O)OC [DMF, di-methyl fumarate]
[1]
  sensitivity of Keap1 wildtype cells to NEAA depletion under oxidant treatment: sensitized to NEAA depletion

## O=C(Cc1cccc(OC(F)(F)F)c1)Nc1ccc(CCCCc2nnc(NC(=O)Cc3ccccn3)s2)nn1 [CB-839]
[2]; CB-839 alone
  effect of very low doses of CB-839 alone on cell growth: do not affect cell growth
[2]; Keap1 mutant cells, 0.1 U/mL L-asparaginase, FIG. 6I
  sensitivity to very low doses of CB-839 with L-asparaginase: increased sensitivity
[2]; Keap1 mutant cells, serine at 10% of normal concentration, FIG. 6J
  sensitivity to very low doses of CB-839 in reduced serine: increased sensitivity
[3]
  serine and glycine synthesis from [U^13C]-D glucose: decrease in both serine and glycine synthesis
[4]; 200 mg/kg twice daily oral gavage, FIG. 9E
  growth of Keap1 mutant tumors, CB-839 alone: sensitive
[4]; compared to either monotherapy, FIG. 9E
  growth of Keap1 mutant tumors, CB-839 with −SG diet: further reduced Keap1 mutant tumor growth
[5]; 200 mg/kg twice daily oral gavage, FIG. 9F
  growth of wildtype tumors, CB-839 alone: no effect on wildtype tumor growth
[5]; diet lacking serine and glycine, FIG. 9F
  growth of wildtype tumors, CB-839 with −SG diet: strong synergistic effect and significantly reduced wildtype tumor growth; also recorded: strongly sensitizes Keap1 wildtype tumors to dietary restriction of serine and glycine
[6]
  sensitivity of Keap1 mutant cells to CB-839: highly sensitive

## Cc1cn([C@H]2C[C@H](O)[C@@H](CO)O2)c(=O)[nH]c1=O [thymidine]
[1]; Keap1 mutant cells
  rescue of cell growth under serine deprived conditions by supplementation: complete rescue of cell growth

## OO [H2O2]
KPKJ wt and KPKJ V cells
  cell ROS level increase: about 200 fold

## O=CO [formate]
[1]; Keap1 mutant cells
  rescue of cell growth under serine deprived conditions by supplementation: complete rescue of cell growth

## N[C@@H](CCC(=O)O)C(=O)O [glutamate]
[3]; Keap1 mutant cells, 500 nM Erastin or 6 mM glutamate, FIG. 6B, 6C
  intracellular glutamate levels: significantly increased intracellular glutamate levels
[3]
  serine and glycine synthesis from [U^13C]-D glucose: increase in both serine and glycine synthesis
[7]
  G6PD KO rescue (colony formation): can rescue G6PD KO cells; also recorded: Completely rescue

## CC(=O)CC(=O)CCC(=O)O [succinylacetone, 4,6-Dioxoheptanoic acid]
[8]
  relative viability in response to succinylacetone: further sensitize Keap1 mutant cells to heme synthesis inhibition

## Cc1c(C)c2c(c(C)c1O)CCC(C)(C(=O)O)O2 (stereo not shown) [Trolox]
[1]; Keap1 mutant cells
  rescue of cell growth under serine deprived conditions by supplementation: did not rescue cell growth
[7]
  G6PD KO rescue (colony formation): No rescue

## CC(=O)N[C@@H](CS)C(=O)O [NAC, N-acetyl-L-cysteine]
[1]; Keap1 mutant cells
  rescue of cell growth under serine deprived conditions by supplementation: did not rescue cell growth
[7]
  G6PD KO rescue (colony formation): No rescue

## CCCCS(=N)(=O)CCC(N)C(=O)O [BSO, L-buthionine-sulfoximine]
[1]
  sensitivity of Keap1 wildtype cells to NEAA depletion under oxidant treatment: sensitized to NEAA depletion

## C[C@H](N)C(=O)O [alanine]
[1]; Keap1 mutant cells, RPMI 10% dialyzed FBS, FIG. 2D
  proliferation on alanine supplementation: increase in cancer cell proliferation

## COc1cc([C@@H](CC(=O)O)c2ccc(C)c(CN3C[C@@H](C)Oc4ccccc4S3(=O)=O)c2)cc2nnn(C)c12 [KI696]
[9]
  proliferation in media lacking serine or asparagine, p53 wildtype LKR lines: growth suppression
[10]
  growth upon serine deprivation or L-asparaginase treatment after Nrf2 activation: robust growth suppression
[11]
  pharmacokinetics: prevent its efficient use in vivo

## O=C(O)CCC(=O)C(=O)O [a-KG]
[7]
  G6PD KO rescue (colony formation): can rescue G6PD KO cells; also recorded: Completely rescue

## L-asparaginase
[2]; Keap1 mutant vs wildtype cells, RPMI, 3 days, FIG. 1D
  relative viability on L-asparaginase treatment: increased sensitivity
[4]; [13]
  growth of Keap1 mutant tumors, L-asparaginase: blunted growth
[4]; FIG. 9D
  growth of Keap1 mutant tumors, L-asparaginase alone or with asparagine free diet: strongly blunts the growth
[5]; [13]
  growth of wildtype tumors, L-asparaginase: not wildtype tumors
[12]
  plasma levels of asparagine: more effective at reducing plasma levels of asparagine than the asparagine diet

## C=CC1=C(C)c2cc3[n-]c(cc4[n-]c(cc5nc(cc1n2)C(C)=C5C=C)c(C)c4CCC(=O)O)c(CCC(=O)O)c3C.[Fe+2] [heme/hemin]
KP or KPK cells; KP/KPK cells, doxycycline inducible shRNA, FIG. 37B
  rescue of growth defects after shRNA knockdown of Alas1: completely rescues any growth defects
KP or KPK cells; Keap1-mutant (KPK) vs KP cells with guide RNAs against Alas1, FIG. 36A
  exogenous heme needed to rescue growth: require higher levels of exogenous heme to rescue growth
KPK cells
  Alas1 protein level: decrease Alas1
  Hmox1 protein level: increase Hmox1

Reference: US12186377B2, “Modulation of oxidative stress and amino acid metabolism for the treatment or prevention of diseases and disorders” (NEW YORK UNIVERSITY, priority 2019, dated 2025)
